Columns and labels:
in vitro [1] = conditions: human, plasma
in vitro [2] = test: in vitro
Description: Unbound fraction (tissues)

clinical = conditions: human, in vivo, iv
Description: Volume of distribution in man (IV dose)

[3] = pH 7.4
Description: Fraction ionized (pH 7.4)

Q: For `COc1cc(Cc2cnc(N)nc2N)cc(OC)c1OC` [TRIMETHOPRIM], which fraction unbound (in vitro [1]) is on record?
A: The fraction unbound was 0.63.

Q: And the fraction unbound (in vitro [2])?
A: The fraction unbound was 0.166.

Q: And the Vd (clinical)?
A: Its Vd is 1.6 L/kg.

Q: And the Fraction ionised [3]?
A: Its Fraction ionised is 0.319.

Q: With `Clc1cccc(Cl)c1N=C1NCCN1` [CLONIDINE] as the compound, how does the fraction unbound (in vitro [1]) read?
A: The fraction unbound was 0.8.

Q: And the fraction unbound (in vitro [2])?
A: Its fraction unbound is 0.158.

Q: And the Vd (clinical)?
A: Its Vd is 2.1 L/kg.

Q: What about the Fraction ionised [3] of the same compound?
A: The Fraction ionised was 0.817.

Q: For `COc1ccc([C@@H]2Sc3ccccc3N(CCN(C)C)C(=O)[C@@H]2OC(C)=O)cc1` [DILTIAZEM], which fraction unbound (in vitro [2]; tissues) is on record?
A: The fraction unbound was 0.028.

Q: What about the Vd (clinical) of the same compound?
A: The Vd was 3.1 L/kg.

Q: And the Fraction ionised [3]?
A: The Fraction ionised was 0.82.

Q: For `CCCNCC(O)COc1ccccc1C(=O)CCc1ccccc1` (stereo not drawn) [PROPAFENONE], which Fraction ionised [3] is on record?
A: The Fraction ionised was 0.987.

Q: With `O=C(CCCN1CCC(O)(c2ccc(Cl)cc2)CC1)c1ccc(F)cc1` [HALOPERIDOL] as the compound, how does the fraction unbound (in vitro [2]) read?
A: The fraction unbound was 0.002.

Q: And the Vd (clinical)?
A: Its Vd is 18 L/kg.

Q: And the Fraction ionised [3]?
A: The Fraction ionised was 0.947.

Q: With `CN1[C@@H]2CC[C@H]1C[C@@H](OC(=O)C(CO)c1ccccc1)C2` (stereo partly drawn) [ATROPINE] as the compound, how does the Fraction ionised [3] read?
A: Its Fraction ionised is 0.996.

Q: Which results are given for `CN(C)CCCN1c2ccccc2CCc2ccccc21` [IMIPRAMINE]?
A: fraction unbound (in vitro [2]; tissues): 0.002; Vd (clinical): 18 L/kg; Fraction ionised [3]: 0.992

Q: Which Fraction ionised [3] does the source give for `CN1C(=O)CN=C(c2ccccc2)c2cc(Cl)ccc21` [DIAZEPAM] here?
A: Its Fraction ionised is 0.

Q: For `CCN(CC)CCNC(=O)c1cc(Cl)c(N)cc1OC` [METOCLOPRAMIDE], which fraction unbound (in vitro [2]) is on record?
A: Its fraction unbound is 0.07.

Q: What about the Vd (clinical) of the same compound?
A: The Vd was 3.4 L/kg.

Q: And the Fraction ionised [3]?
A: Its Fraction ionised is 0.988.

Q: Which Fraction ionised [3] does the source give for `CN(C)CCOC(c1ccccc1)c1ccccc1` [DIPHENHYDRAMINE] here?
A: Its Fraction ionised is 0.98.

Q: For `Cc1nnc2n1-c1ccc(Cl)cc1C(c1ccccc1)=NC2` [ALPRAZOLAM], which fraction unbound (in vitro [2]; tissues) is on record?
A: The fraction unbound was 0.881.

Q: What about the Vd (clinical) of the same compound?
A: The Vd was 0.72 L/kg.

Q: What about the Fraction ionised [3] of the same compound?
A: The Fraction ionised was 0.

Q: For `CNCCCN1c2ccccc2CCc2ccccc21` [DESIPRAMINE], which fraction unbound (in vitro [2]) is on record?
A: Its fraction unbound is 0.003.

Q: What about the Vd (clinical) of the same compound?
A: The Vd was 20 L/kg.

Q: What about the Fraction ionised [3] of the same compound?
A: The Fraction ionised was 0.999.

Q: Which fraction unbound (in vitro [2]; tissues) does the source give for `CCCC(=O)Nc1ccc(OCC(O)CNC(C)C)c(C(C)=O)c1` (stereo not drawn) [ACEBUTOLOL] here?
A: Its fraction unbound is 0.273.

Q: And the Vd (clinical)?
A: The Vd was 1.2 L/kg.

Q: What about the Fraction ionised [3] of the same compound?
A: Its Fraction ionised is 0.995.

Q: With `C=C[C@H]1C[N@@]2CC[C@H]1C[C@@H]2[C@@H](O)c1ccnc2ccc(OC)cc12` [QUINIDINE] as the compound, how does the fraction unbound (in vitro [2]; tissues) read?
A: The fraction unbound was 0.019.

Q: What about the Fraction ionised [3] of the same compound?
A: Its Fraction ionised is 0.817.

Q: Which fraction unbound (in vitro [2]) does the source give for `CN1CCN(C2=Nc3cc(Cl)ccc3Nc3ccccc32)CC1` [CLOZAPINE] here?
A: Its fraction unbound is 0.004.

Q: And the Vd (clinical)?
A: The Vd was 5.4 L/kg.

Q: And the Fraction ionised [3]?
A: Its Fraction ionised is 0.629.

Q: With `CCN(CC)CC(=O)Nc1c(C)cccc1C` [LIDOCAINE] as the compound, how does the Fraction ionised [3] read?
A: The Fraction ionised was 0.776.

Q: For `COC(=O)C1=C(C)NC(C)=C(C(=O)OC)C1c1ccccc1[N+](=O)[O-]` [NIFEDIPINE], which fraction unbound (in vitro [2]) is on record?
A: Its fraction unbound is 0.023.

Q: What about the Vd (clinical) of the same compound?
A: The Vd was 0.78 L/kg.

Q: What does the source list for `CC(C)(C)NCC(O)c1cc(O)cc(O)c1` (stereo not drawn) [TERBUTALINE]?
A: fraction unbound (in vitro [2]; tissues): 0.187; Vd (clinical): 1.8 L/kg; Fraction ionised [3]: 0.952

Q: Which Fraction ionised [3] does the source give for `CCCCc1oc2ccccc2c1C(=O)c1cc(I)c(OCCN(CC)CC)c(I)c1` [AMIODARONE] here?
A: The Fraction ionised was 0.955.

Q: For `Cn1c(=O)c2c(ncn2C)n(C)c1=O` [CAFFEINE], which fraction unbound (in vitro [2]; tissues) is on record?
A: Its fraction unbound is 0.543.

Q: What about the Vd (clinical) of the same compound?
A: The Vd was 0.61 L/kg.

Q: What about the Fraction ionised [3] of the same compound?
A: Its Fraction ionised is 0.

Q: With `CN1CC[C@]23c4c5ccc(O)c4O[C@H]2[C@@H](O)C=C[C@H]3[C@H]1C5` [MORPHINE] as the compound, how does the Fraction ionised [3] read?
A: Its Fraction ionised is 0.858.

Q: For `CCN(CC)CCNC(=O)c1ccc(N)cc1` [PROCAINAMIDE], which Fraction ionised [3] is on record?
A: Its Fraction ionised is 0.986.

Q: Which fraction unbound (in vitro [2]) does the source give for `C[C@@H]1C[C@H]2[C@@H]3CCC4=CC(=O)C=C[C@]4(C)[C@@]3(F)[C@@H](O)C[C@]2(C)[C@@]1(O)C(=O)CO` [DEXAMETHASONE] here?
A: Its fraction unbound is 0.182.

Q: What about the Fraction ionised [3] of the same compound?
A: The Fraction ionised was 0.

Q: For `Cc1nc2n(c(=O)c1CCN1CCC(c3noc4cc(F)ccc34)CC1)CCCC2` [RISPERIDONE], which fraction unbound (in vitro [2]) is on record?
A: The fraction unbound was 0.042.

Q: And the Fraction ionised [3]?
A: Its Fraction ionised is 0.764.

Q: Which results are given for `CN1C(=O)C(O)N=C(c2ccccc2Cl)c2cc(Cl)ccc21` (stereo not drawn) [LORMETAZEPAM]?
A: fraction unbound (in vitro [2]; tissues): 0.007; Vd (clinical): 6.8 L/kg; Fraction ionised [3]: 0

Q: What does the source list for `O=C1Nc2ccc(Cl)cc2C(c2ccccc2Cl)=NC1O` (racemic) [LORAZEPAM]?
A: fraction unbound (in vitro [2]; tissues): 0.029; Vd (clinical): 1.3 L/kg; Fraction ionised [3]: 0

Q: What does the source list for `CC(C)NCC(O)COc1cccc2ccccc12` (stereo not drawn) [PROPRANOLOL]?
A: fraction unbound (in vitro [2]): 0.012; Vd (clinical): 4.3 L/kg; Fraction ionised [3]: 0.991
